According to patent publication US20250262186A1 (SANOFI, priority 2022, published 2025):

Target: T1, ERα (Homo sapiens, UniProt P03372)
T1 construct: made using a breast cancer cell ERα in cell western assay; host or cells: MCF7
T1 sequence (P03372 1-595): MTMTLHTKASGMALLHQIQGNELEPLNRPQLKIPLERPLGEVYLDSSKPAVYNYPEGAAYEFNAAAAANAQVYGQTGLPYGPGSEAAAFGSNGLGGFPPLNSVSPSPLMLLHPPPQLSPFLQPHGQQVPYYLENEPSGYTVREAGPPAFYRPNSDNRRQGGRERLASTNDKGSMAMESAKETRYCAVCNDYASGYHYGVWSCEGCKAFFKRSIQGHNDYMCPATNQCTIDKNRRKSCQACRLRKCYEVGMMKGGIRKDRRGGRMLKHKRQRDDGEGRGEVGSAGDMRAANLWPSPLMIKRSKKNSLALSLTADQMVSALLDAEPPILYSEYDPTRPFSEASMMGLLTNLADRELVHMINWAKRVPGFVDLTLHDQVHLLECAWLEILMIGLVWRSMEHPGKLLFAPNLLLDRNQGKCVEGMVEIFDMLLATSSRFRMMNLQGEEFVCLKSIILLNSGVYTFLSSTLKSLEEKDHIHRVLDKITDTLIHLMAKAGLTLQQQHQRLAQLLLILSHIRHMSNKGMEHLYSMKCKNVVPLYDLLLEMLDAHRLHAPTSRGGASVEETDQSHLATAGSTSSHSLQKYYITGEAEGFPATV
Test: Estrogen receptor degradation activity: breast cancer cell ERα in cell western assay in MCF7 cells
Format: cell-based
Conditions: 0.3 μM, 4 hours, relative to fulvestrant 0.1 μM positive control
Protocol: Said test involves measuring the in vitro degradation activity of the compounds of the Table 1a.
The measurements of the degradation activities were made using a breast cancer cell ERα in cell western assay as described hereunder.
MCF7 cells (ATCC) were seeded in 384 wells microplate (collagen coated) at a concentration of 10000 cells/30 μL per well in red phenol free MEM alpha medium (invitrogen) containing 5% charcoal dextran striped FBS. The following day, 9 points serial 1:5 dilution of each compound was added to the cells in 2.5 μL at final concentrations ranging from 0.3-0.0000018 μM (in table 2), or 0.1 μM for fulvestrant (using as positive control). At 4 hours post compound addition the cells were fixed by adding 25 μL of formalin (final concentration 5% formalin containing 0.1% triton) for 10 minutes at room temperature and then washed twice with PBS. Then, 50 μL of LI-COR blocking buffer containing 0.1% Triton was added to plate for 30 minutes at room temperature. LI-COR blocking buffer was removed and cells were incubated overnight at cold room with 50 μL anti-ER rabbit monoclonal antibody (Thermo scientific MA1-39540) diluted at 1:1000 in LI-COR blocking buffer containing 0.1% tween-20. Wells which were treated with blocking buffer but no antibody were used as background control. Wells were washed twice with PBS (0.1% tween-20) and incubated at 37° C. for 60 minutes in LI-COR (0.1% tween-20) containing goat anti-rabbit antibody Alexa 488 (1:1000) and Syto-64 a DNA dye (2 μM final concentration). Cells were then washed 3 times in PBS and scanned in ACUMEN explorer (TTP-Labtech). Integrated intensities in the green fluorescence and red fluorescence were measured to determine the levels of ERα and DNA respectively.
The degradation activity with respect to estrogen receptors in this test is given by the concentration which degrades 50% of the estrogen receptor (or IC50) in nM.
The % of ERα levels decrease were determined as follows: % inhibition=100*(1−(sample−fulvestrant: DMSO−fulvestrant)).

| Structure (SMILES) | % Degradation At 0.3 μM |
| --- | --- |
| CC1CCC(C2=C(c3cccc(OC4CCN(CCCF)C4)c3)c3ccc(C(=O)O)cc3CCC2)CC1 (single isomer, unassigned; isomer 1) [Compound 11] | 76% |
| O=C(O)c1ccc2c(c1)CCCC(c1ccc(Cl)cc1Cl)=C2c1cccc(CC2CCN(CCCF)C2)c1 (single isomer, unassigned; isomer 1) [Compound 28, 8-(2,4-dichlorophenyl)-9-(3-((1-(3-fluoropropyl)pyrrolidin-3-yl)methyl)phenyl)-6,7-dihydro-5H-benzo[7]annulene-3-carboxylic acid, Isomer 1] | 87% |
| CC1CCc2cc(C(=O)O)ccc2C(c2cccc(OC3CCN(CCCF)C3)c2)=C1c1cccc(Cl)c1 (single isomer, unassigned; isomer 1) [Compound 36] | 69% |
| CC1CCC(C2=C(c3cccc(OC4CCN(CCCF)C4)c3)c3ccc(C(=O)O)cc3CCC2)CC1 (single isomer, unassigned; isomer 2) [Compound 12] | 84% |
| CC1CCc2cc(C(=O)O)ccc2C(c2cccc(OC3CCN(CCCF)C3)c2)=C1c1cccc(Cl)c1 (single isomer, unassigned; isomer 2) [Compound 37] | 67% |
| O=C(O)c1ccc2c(c1)CCCC(c1ccccc1)=C2c1cccc(O[C@@H]2CCN(CCCF)C2)c1 [Compound 2, (R)-9-(3-((1-(3-fluoropropyl)pyrrolidin-3-yl)oxy)phenyl)-8-phenyl-6,7-dihydro-5H-benzo[7]annulene-3-carboxylic acid] | 81% |
| O=C(O)c1ccc2c(c1)CCCC(c1ccccc1)=C2c1cccc(O[C@H]2CCN(CCCF)C2)c1 [Compound 2a, (S)-9-(3-((1-(3-fluoropropyl)pyrrolidin-3-yl)oxy)phenyl)-8-phenyl-6,7-dihydro-5H-benzo[7]annulene-3-carboxylic acid] | Inactive |
| O=C(O)c1ccc2c(c1)CCCC(c1ccc(Cl)cc1F)=C2c1cccc(O[C@@H]2CCN(CCCF)C2)c1 [Compound 6, (R)-8-(4-chloro-2-fluorophenyl)-9-(3-((1-(3-fluoropropyl)pyrrolidin-3-yl)oxy)phenyl)-6,7-dihydro-5H-benzo[7]annulene-3-carboxylic acid] | 89% |
| Cc1ccc(C2=C(c3cccc(O[C@@H]4CCN(CCCF)C4)c3)c3ccc(C(=O)O)cc3CCC2)c(F)c1 [Compound 7, (R)-8-(2-fluoro-4-methylphenyl)-9-(3-((1-(3-fluoropropyl)pyrrolidin-3-yl)oxy)phenyl)-6,7-dihydro-5H-benzo[7]annulene-3-carboxylic acid] | 85% |
| Cl.O=C(O)c1ccc2c(c1)CCCC(C1CCC(F)(F)CC1)=C2c1cccc(O[C@@H]2CCN(CCCF)C2)c1 [Compound 10, (R)-8-(4,4-difluorocyclohexyl)-9-(3-((1-(3-fluoropropyl)pyrrolidin-3-yl)oxy)phenyl)-6,7-dihydro-5H-benzo[7]annulene-3-carboxylic acid hydrochloride] | 85% |
| CC1(C)CCC(C2=C(c3cccc(O[C@@H]4CCN(CCCF)C4)c3)c3ccc(C(=O)O)cc3CCC2)CC1.Cl [Compound 13, (R)-8-(4,4-dimethylcyclohexyl)-9-(3-((1-(3-fluoropropyl)pyrrolidin-3-yl)oxy)phenyl)-6,7-dihydro-5H-benzo[7]annulene-3-carboxylic acid, hydrochloride] | 57% |
| O=C(O)c1ccc2c(c1)CCCC(C1CCCC1)=C2c1cccc(O[C@@H]2CCN(CCCF)C2)c1 [Compound 14, (R)-8-cyclopentyl-9-(3-((1-(3-fluoropropyl)pyrrolidin-3-yl)oxy)phenyl)-6,7-dihydro-5H-benzo[7]annulene-3-carboxylic acid] | 77% |

Results, then the molecule that gave them:

| % Degradation At 0.3 μM | Structure (SMILES) |
| --- | --- |
| 85% | O=C(O)c1ccc2c(c1)CCCC(c1ccc(Cl)cc1Cl)=C2c1cccc(O[C@@H]2CCN(CCCF)C2)c1 [Compound 1, (R)-8-(2,4-dichlorophenyl)-9-(3-((1-(3-fluoropropyl)pyrrolidin-3-yl)oxy)phenyl)-6,7-dihydro-5H-benzo[7]annulene-3-carboxylic acid] |
| Inactive | O=C(O)c1ccc2c(c1)CCCC(c1ccc(Cl)cc1Cl)=C2c1cccc(O[C@H]2CCN(CCCF)C2)c1 [Compound 1a, (S)-8-(2,4-dichlorophenyl)-9-(3-((1-(3-fluoropropyl)pyrrolidin-3-yl)oxy)phenyl)-6,7-dihydro-5H-benzo[7]annulene-3-carboxylic acid] |
| 84% | O=C(O)c1ccc2c(c1)CCCC(c1ccccc1Cl)=C2c1cccc(O[C@@H]2CCN(CCCF)C2)c1 [Compound 3, (R)-8-(2-chlorophenyl)-9-(3-((1-(3-fluoropropyl)pyrrolidin-3-yl)oxy)phenyl)-6,7-dihydro-5H-benzo[7]annulene-3-carboxylic acid] |
| 91% | O=C(O)c1ccc2c(c1)CCCC(c1ccc(F)cc1Cl)=C2c1cccc(O[C@@H]2CCN(CCCF)C2)c1 [Compound 5, (R)-8-(2-chloro-4-fluorophenyl)-9-(3-((1-(3-fluoropropyl)pyrrolidin-3-yl)oxy)phenyl)-6,7-dihydro-5H-benzo[7]annulene-3-carboxylic acid] |
| 90% | O=C(O)c1ccc2c(c1)CCCC(c1cccc(F)c1Cl)=C2c1cccc(O[C@@H]2CCN(CCCF)C2)c1 [Compound 9, (R)-8-(2-chloro-3-fluorophenyl)-9-(3-((1-(3-fluoropropyl)pyrrolidin-3-yl)oxy)phenyl)-6,7-dihydro-5H-benzo[7]annulene-3-carboxylic acid] |
| 80% | Cc1c(O[C@@H]2CCN(CCCF)C2)cccc1C1=C(c2ccccc2)CCCc2cc(C(=O)O)ccc21 [Compound 15, (R)-9-(3-((1-(3-fluoropropyl)pyrrolidin-3-yl)oxy)-2-methylphenyl)-8-phenyl-6,7-dihydro-5H-benzo[7]annulene-3-carboxylic acid] |
| 97% | Cc1c(O[C@@H]2CCN(CCCF)C2)cccc1C1=C(c2ccccc2Cl)CCCc2cc(C(=O)O)ccc21 [Compound 16, (R)-8-(2-chlorophenyl)-9-(3-((1-(3-fluoropropyl)pyrrolidin-3-yl)oxy)-2-methylphenyl)-6,7-dihydro-5H-benzo[7]annulene-3-carboxylic acid] |
| 87% | Cc1c(O[C@@H]2CCN(CCCF)C2)cccc1C1=C(c2ccc(Cl)cc2Cl)CCCc2cc(C(=O)O)ccc21 [Compound 17, (R)-8-(2,4-dichlorophenyl)-9-(3-((1-(3-fluoropropyl)pyrrolidin-3-yl)oxy)-2-methylphenyl)-6,7-dihydro-5H-benzo[7]annulene-3-carboxylic acid] |
| 78% | Cc1cc(F)ccc1C1=C(c2cccc(O[C@@H]3CCN(CCCF)C3)c2C)c2ccc(C(=O)O)cc2CCC1 [Compound 18, (R)-8-(4-fluoro-2-methylphenyl)-9-(3-((1-(3-fluoropropyl)pyrrolidin-3-yl)oxy)-2-methylphenyl)-6,7-dihydro-5H-benzo[7]annulene-3-carboxylic acid] |
| 82% | Cl.O=C(O)c1ccc2c(c1)CCCC(c1ccccc1)=C2c1cccc(O[C@@H]2CCN(CCCF)C2)c1F [Compound 19, (R)-9-(2-fluoro-3-((1-(3-fluoropropyl)pyrrolidin-3-yl)oxy)phenyl)-8-phenyl-6,7-dihydro-5H-benzo[7]annulene-3-carboxylic acid, hydrochloride] |
| 88% | Cl.O=C(O)c1ccc2c(c1)CCCC(c1ccccc1Cl)=C2c1cccc(O[C@@H]2CCN(CCCF)C2)c1F [Compound 20, (R)-8-(2-chlorophenyl)-9-(2-fluoro-3-((1-(3-fluoropropyl)pyrrolidin-3-yl)oxy)phenyl)-6,7-dihydro-5H-benzo[7]annulene-3-carboxylic acid, hydrochloride] |

Same assay, conditions: text statement on comparative compounds

| degradation activity for estrogen receptors (in words) | Structure (SMILES) |
| --- | --- |
| inactive | O=C(O)c1ccc2c(c1)CCCC(c1ccc(Cl)cc1Cl)=C2c1cccc(O[C@H]2CCN(CCCF)C2)c1 [Compound 1a, (S)-8-(2,4-dichlorophenyl)-9-(3-((1-(3-fluoropropyl)pyrrolidin-3-yl)oxy)phenyl)-6,7-dihydro-5H-benzo[7]annulene-3-carboxylic acid] |
| inactive | O=C(O)c1ccc2c(c1)CCCC(c1ccccc1)=C2c1cccc(O[C@H]2CCN(CCCF)C2)c1 [Compound 2a, (S)-9-(3-((1-(3-fluoropropyl)pyrrolidin-3-yl)oxy)phenyl)-8-phenyl-6,7-dihydro-5H-benzo[7]annulene-3-carboxylic acid] |
